Here are results for two compounds from patent publication US20100184814A1, “Ester Derivatives of Losartan, Methods for Their Preparation, and Uses Thereof” (priority 2009, published 2010).

The nature of data set [1]: Pharmacokinetic study: plasma compound (II) (Losartan) after oral dosing of compounds of formula (I). It counts as in vivo. The following applies: male Kumin mice, fasted, single oral gavage dose 5.8 mg/kg referenced to compound (II). As for the experimental part:
Pharmacokinetic studies. The pharmacokinetics (PK) of compounds of formula (I) as well as Losartan were investigated in male Kumin mice. There were six mice per group and nine groups for this study. All mice were fasted overnight, following a single dose of 5.8 mg/kg referenced to the amount of metabolite, the compound of formula (2) from every compound of formula (1) studied. All mice were given dosing orally by gavage. The dosing vehicle used was propyleneglycol:water (1:1). The mice were fed 4 h post dose. Blood samples were collected at 0, 15, 30, 45 min, 1, 2, 4, 7, 10 and 15 h oral dosing. Approximately […] of blood was collected from the jugular vein in tubes containing EDTA, and plasma was obtained by centrifugation. Plasma samples were stored at −20° C. until analysis. Samples were analyzed for the compound of formula (II), (1-((2′-(2H-tetrazol-5-yl)biphenyl-4-yl)methyl)-2-butyl-4-chloro-1H-imidazol-5-yl)methanol, by LC/MS/MS.

For data set [2] the following is noted: background statement on Losartan; cited from earlier work.
Setting [3] is: compound (II) (Losartan) measured in plasma.

As to `CCCCc1nc(Cl)c(COC(=O)CN)n1Cc1ccc(-c2ccccc2-c2nn[nH]n2)cc1` [Compound (118), (S)-(1-((2′-(2H-tetrazol-5-yl)biphenyl-4-yl)methyl)-2-butyl-4-chloro-1H-imidazol-5-yl)methyl 2-aminoacetate], in data set [1] (setting [3]), the “Bioavailability of compound (II)” value is listed as 19% and the “Half-time (T1/2) of compound (II)” value turned out to be 1.9 h. In data set [1] (compound (II) (Losartan) measured in plasma by LC/MS/MS, read-out: Maximum Blood Concentration (Cmax) of compound (II)), the Cmax turned out to be 504 nM.

With `CCCCc1nc(Cl)c(CO)n1Cc1ccc(-c2ccccc2-c2nn[nH]n2)cc1` [Losartan, (1-((2′-(2H-tetrazol-5-yl)biphenyl-4-yl)methyl)-2-butyl-4-chloro-1H-imidazol-5-yl)methanol], in data set [2], the bioavailability is given as 25-35% and the half-life (as a rule, the time in which the quantity being followed falls by half) was 1 to 2 h.
